Reference: patent publication US5096929A, “2-amino-1,2,3,4-tetrahydronaphthalene derivatives with cardiovascular activity, process for their preparation and pharmaceutical compositions containing them” (Chiesi Farmaceutici S.p.A., priority 1989, dated 1992)
Where a name gives a salt, the structure may show the parent alone. Read-outs that look alike come from different tables or passages of the source.

Assays:
[1] = Evaluation of acute toxicities, mouse; details: in vivo, male, read-out: Acute toxicity mean LD50
From the text: Evaluation of acute toxicities

isolated rat left atrium = test: Isolated rat left atrium: inotropic activity (force); details: for EC50 / Emax: Rattus norvegicus; for EC50: read-out: EC50, left atrium (force)
Experimental: (§1) The inotropic and chronotropic effects of compound (Ia) of the invention were determined in vitro using, respectively, isolated rat left atrium and right atrium.
Left atrium:inotrocic activity
The atria were subjected to a 0.5 g starting tension and suspended in a bath containing aerated Krebs-Henseleit j solution with 95% O2 and […] kept at 32.C. The preparation was stimulated at a 4 Hz frequency with pulses during 5 msec each. The contraction strength was detected by an isometric transducer and recorded on a microndynamometer.
(§2) The results were expressed as the percentage of the response obtained with a maximal dose ([…]) of isoproterenol which was determined at the beginning of the test. In Table 1 the potency (EC50=effective concentration inducing the 50% of the maximal effect) and the relative intrinsic activity (expressed as α and compared with that of isoproterenol, taken=1) are shown.
(§3) The effects of the compounds were evaluated in rat isolated atria according to the previously described method.
(§4) Table 3. Potency (EC50) and intrinsic activity (α;isoproterenol=1) on the isolated rat left atrium (Inotropic activity) and right atrium (chronotropic activity).

[2] = biological target: T1, beta-2 adrenergic receptors (Cavia porcellus, UniProt Q8K4Z4); test: Isolated guinea-pig trachea: interactions with beta-2 adrenergic receptors (relaxation of carbachol contraction); details: for EC50: carbachol 3×10^-7 M
T1 construct: Trachea strips were isolated and prepared according to the method described by Emerson J and Machay D; from tissue; host or cells: guinea-pig isolated trachea strips
Experimental: The selectivity of this interaction has been studied by evaluating the effects on beta-2 adrenergic receptors, in the guinea-pig isolated trachea, using CHF 1026 as reference compound.
Isolated guinea-pig trachea: interactions with beta-2 adrenergic receptors
Trachea strips were isolated and prepared according to the method described by Emerson J and Machay D in J Pharm Pharmacol 1979, 31, 798, immersed in Krebs-Henseleit solution (37° C., 95% O2 +5% CO2), subjected to an initial tension of 1 g and contracted with carbachol (3×10^-7 M).
Dose-response curves of CHF 1255 and CHF 1026 were recorded in the absence and in the presence of 10^-6 M propranolol, used as antagonist and added to the bath before the stimulation with carbachol.
The obtained results are shown in Table 2, expressed as potency (EC50 calculated from t he dose--response curve) and intrinsic activity (α, isoproternol=1).

[3] = test system: arterial rat hind quarter; test: Rat perfused hind quarter; vasodilating action; details: for Emax: Rattus norvegicus, 100% = complete reduction
Experimental: Rat perfused hind quarter; vasodilating action
The vasodilating effect of CHF 1255 has been evaluated in the arterial rat hind quarter perfused with Krebs-Henseleit solution at constant flow.
The increase of arterial resistance was induced by K^+ -enriched solution (40 mM), norepinephrine (5×10^-6 M) and serotonin (5×10^-7 M).
Papaverine and prazosin, powerful α-blocker vasodilator, were used as reference compounds.
ED40 =dose (moles) decreasing of 40% the contraction induced by the agonist. 100% was considered as the complete recduction of contraction.

anesthetized dog = test: Anesthetized dog: cardiovascular activity; assay type: in vivo, Beagle dog; details: for Hypotensive action / Increase of the cardiac output / Increase of the stroke volume / Reduction of the systemic arterial resistances: i.v. bolus
Experimental: The interesting hemodynamic properties of CHF 1255 were confirmed in vivo in the anesthetized dog.
Anesthesized dog: cardiovascular activity
Beagle dogs were anesthetized with sodium pentobarbital (30 mg/kg iv) thoracotomized and monitored by recording cardiocirculatory parameters.
CHF 1255 and the reference drugs (amrinone and xamoterol) were administered i.v. in a bolus.
CHF 1255 at the doses of 0.3-1.3 μmoles/kg i.v. confirmed its activity in changing hemodynamic parameters.

[4] = test system: histaminergic H2 receptors; test: Mechanism of cardiostimulant action: histaminergic H2 receptors; details: mechanism study
From the text: (§5) The mechanism of the inotropic activity of CHF 1255 has been studied in a series of other tests.
(§6) Studies have excluded the possibility that the cardiostimulant action of the compound is due to catecholamines release, to the stimulation of alpha-adrenergic cardiac receptors, or to the stimulation of histaminergic H1 and H2 receptors.

[5] = test system: beta-1 adrenergic receptors; test: Isolated rat left atrium: interactions with beta-adrenergic receptors (atenolol antagonism)
Experimental: Isolated rat left atrium: interactions with beta-adrenercic receptors.
The affinity for beta-1 adrenergic receptors has been evaluated in the rat left atrium as previously described.
In this test, dose-response curves of CHF 1255 were recorded in the absence and in the presence of increasing concentrations (10^-8 to 3×10^-7 M) of the selective beta-1 blocker atenolol.

rabbit isolated aorta = test: Rabbit isolated aorta, inhibition of norepinephrine dose-response curve
[6] = test system: isolated rat right atrium; test: Isolated rat right atrium: chronotropic activity (frequency); details: for EC50 / Emax: Rattus norvegicus; for EC50: read-out: EC50, right atrium (frequency)
Experimental: as §1
Right atrium:chronotrpic activity
The preparation was prepared in the same way and under the same conditions as described above, but was not subjected to electric stimulation. Frequency was monitored by a cardiotachograph.
as §2, §3, §4

phosphodiesterase = test: Mechanism of cardiostimulant action: phosphodiesterase inhibition; details: mechanism study
From the text: as §5, §6

[7] = test system: alpha-adrenergic cardiac receptors; test: Mechanism of cardiostimulant action: alpha-adrenergic cardiac receptors; details: mechanism study
From the text: as §5, §6

[8] = test system: histaminergic H1 receptors; test: Mechanism of cardiostimulant action: histaminergic H1 receptors; details: mechanism study
From the text: as §5, §6

catecholamines release = test: Mechanism of cardiostimulant action: catecholamines release; details: mechanism study
From the text: as §5, §6

[9] = test system: beta-2 adrenergic receptors; test: Isolated guinea-pig trachea: interactions with beta-2 adrenergic receptors (relaxation of carbachol contraction); details: inferred from selective beta-1 agonism
[10] = 1st of three doses (0.3-1.3 μmoles/kg)
[11] = 2nd of three doses (0.3-1.3 μmoles/kg)
[12] = 3rd of three doses (0.3-1.3 μmoles/kg)

T1 sequence (Q8K4Z4 whole entry): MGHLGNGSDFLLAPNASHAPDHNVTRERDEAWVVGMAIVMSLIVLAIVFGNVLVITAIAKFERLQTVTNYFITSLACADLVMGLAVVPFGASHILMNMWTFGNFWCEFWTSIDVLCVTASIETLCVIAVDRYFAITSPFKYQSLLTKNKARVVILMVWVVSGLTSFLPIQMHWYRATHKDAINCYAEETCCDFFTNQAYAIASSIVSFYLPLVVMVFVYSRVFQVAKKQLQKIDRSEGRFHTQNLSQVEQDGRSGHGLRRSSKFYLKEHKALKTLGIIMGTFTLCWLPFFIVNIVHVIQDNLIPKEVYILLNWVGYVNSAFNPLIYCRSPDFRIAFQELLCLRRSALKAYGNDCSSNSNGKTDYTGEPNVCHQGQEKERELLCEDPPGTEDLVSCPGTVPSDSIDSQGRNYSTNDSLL

## COc1ccc2c(c1OC)CCC(N[C@@H](C)[C@H](O)c1ccc(O)cc1)C2 (relative stereo) [CHF 1255, Erythro-5,6-Dimethoxy-2-[2-(4-hydroxyphenyl)-2-hydroxy-1-mehylethylamino]1,2,3,4-tetrahydronaphthalene hydrochloride]
[1]; iv, i.v.
  LD50: 65 mg/kg
[1]; po, os
  LD50: 325 mg/kg
Isolated rat left atrium; Table 3, inotropic activity, rat left atrium
  EC50: 3.01 µM
Isolated rat left atrium; Table I, isolated rat left atrium, 4 Hz stimulation, confidence limits in parentheses
  EC50: 3 µM
Isolated rat left atrium; Table 3, isoproterenol=1, read-out: α, left atrium (force)
  Emax: 60%
Isolated rat left atrium; Table I, isoproterenol taken=1, confidence limits in parentheses, read-out: α (intrinsic activity), left atrium (force)
  Emax: 60%
Isolated rat left atrium; Table 1 comparison
  Cardiostimulating potency compared with dopamine and CHF 1026: potency comparable to those of dopamine and of CHF 1026
Isolated rat left atrium; beta-1 adrenergic receptors
  Intrinsic activity / type of agonism (in words): partial agonist of beta-1 adrenergic receptors
Isolated rat left atrium; increase of contraction force, 50% of maximum effect, higher than amrinone
  Potency ratio vs amrinone (times higher): about 10 times
Isolated rat left atrium; increase of contraction force, 50% of maximum effect, lower than xamoterol
  Potency ratio vs xamoterol (times lower): about 300 times
[2]; 10^-6 M propranolol
  Effect of propranolol on dose-response curve: remain unchanged
[2]; guinea pig, isoproterenol=1, without propranolol, read-out: α in absence of propranolol
  Emax: 94%
[2]; guinea-pig trachea
  Stimulation of beta-2 adrenergic receptors (in words): does not stimulate beta-2 adrenergic receptors
[2]; guinea-pig trachea, with 10^-6 M propranolol, read-out: EC50 in presence of propranolol
  EC50: 4.6 µM
[2]; guinea-pig trachea, without propranolol, read-out: EC50 in absence of propranolol
  EC50: 3.4 µM
[2]; isoproterenol=1, with 10^-6 M propranolol
  α in presence of propranolol: 0.72
[3]; K+, norepinephrine, serotonin
  Activity against contraction by the different agents (in words): particularly active on the norepinephrine induced contraction
[3]; K+ 40 mM, read-out: α (efficacy), K+ induced contraction
  Emax: 46%
[3]; norepinephrine 5×10^-6 M, read-out: α (efficacy), norepinephrine induced contraction
  Emax: 94%
[3]; serotonin 5×10^-7 M, read-out: α (efficacy), 5-HT induced contraction
  Emax: 60%
[3]; dose decreasing contraction by 40%, K+ 40 mM
  ED40, K+ induced contraction: 1.5e-06 mol
[3]; dose decreasing contraction by 40%, norepinephrine 5×10^-6 M
  ED40, norepinephrine induced contraction: 1.2e-08 mol
[3]; dose decreasing contraction by 40%, serotonin 5×10^-7 M
  ED40, 5-HT induced contraction: 6.5e-07 mol
Anesthetized dog; anesthetized dog, i.v.
  Hemodynamic effects (in words): more relevant than those of amrinone
Anesthetized dog; dog, in vivo
  Duration of activity: long-lasting
Anesthetized dog; [10]
  Hypotensive action: -17%
  Increase of the cardiac output: 17%
  Increase of the stroke volume: 10
  Reduction of the systemic arterial resistances: -28%
Anesthetized dog; [11]
  Hypotensive action: -22%
  Increase of the cardiac output: 28%
  Increase of the stroke volume: 16
  Reduction of the systemic arterial resistances: -37%
Anesthetized dog; [12]
  Hypotensive action: -31%
  Increase of the cardiac output: 34%
  Increase of the stroke volume: 21
  Reduction of the systemic arterial resistances: -45%
Anesthetized dog; peak of first derivative of aortic flow
  Inotropic effect, dF/dT index (in words): remarkable inotropic effect increasing the dF/dT index
[4]
  Contribution of histaminergic H2 receptor stimulation to cardiostimulant action: excluded
[5]; atenolol 10^-8 to 3×10^-7 M
  Shift of dose-response curve by beta-1 blocker atenolol: shifted the dose-responsive curve of CHF 1255 to the right in a dose-dependent way
[5]; mechanism study
  Receptor mediating the inotropic activity: due to the stimulation of beta-1 adrenergic receptors
Rabbit isolated aorta
  α-blocking activity in rabbit isolated aorta: competitive inhibition of the noprepinephrine dose--response curve
[6]; Table 3, chronotropic activity, rat right atrium
  EC50: 1.32 µM
[6]; Table I, isolated rat right atrium, confidence limits in parentheses
  EC50: 1.3 µM
[6]; Table 3, isoproterenol=1, read-out: α, right atrium (frequency)
  Emax: 160%
[6]; Table I, isoproterenol taken=1, confidence limits in parentheses, read-out: α (intrinsic activity), right atrium (frequency)
  Emax: 55%
[6]; Table 3 comparison
  Chronotropic efficacy compared with xamoterol: remarkably lower than that of xamoterol
phosphodiesterase
  Contribution of phosphodiesterase inhibition to cardiostimulant activity: not due to phosphodiesterase inhibition
[7]
  Contribution of alpha-adrenergic cardiac receptor stimulation to cardiostimulant action: excluded
[8]
  Contribution of histaminergic H1 receptor stimulation to cardiostimulant action: excluded
Catecholamines release
  Contribution of catecholamines release to cardiostimulant action: excluded
[9]
  Tachycardic and arrhythmogenic activity due to stimulation of beta-2 receptors: no tachycardic and arrhythmogenic activity
